Results: US8278313B2, “Macrocyclic spiro pyrimidine derivatives” (Abbott Laboratories, priority 2008, dated 2012)

Legend:
histamine H4 receptor [1] = molecular target: T1, histamine H4 receptor (Homo sapiens, UniProt Q9H3N8); assay: In vitro histamine H4 potency in FLIPR (Ca2+ flux, Fluo-4) in HEK-293 cells coexpressing Gαqi5; format: cell-based; conditions: Kb values for antagonists and inverse agonists, EC50 values for partial agonists; HEK-293 cells with Gαqi5, Fluo-4
T1 construct: expressed in transfected cells
Excerpt: There are many methods available to show the effectiveness of compounds as histamine H4 receptor ligands. Histamine H4 receptors from mammalian species have been cloned. Methods to clone, express, and assess the potency and functional activity of such cloned genes are well known to those skilled in the art of molecular biology. […] Before testing, cells are loaded with a Ca^+2 sensitive fluorescent dye, in this case Fluo-4. In the case of partial agonist or agonist ligands, addition of compound to the cells leads to the increase in intracellular Ca^+2, which is detected by FLIPR (Fluorescence Imaging Plate Reader; Molecular Devices, Sunnyvale, Calif.) technology. […] The fluorescence intensities measured before addition of the test compound are subtracted from the fluorescence intensities at later time points. Peak response values determined at each concentration of ligand are expressed as a percentage of the response obtained with the full agonist histamine. Concentration versus response data are analyzed to obtain compound potency as Kb values for antagonists and inverse agonists and as EC50 values for partial agonists.

histamine H4 receptor [2] = molecular target: T1, histamine H4 receptor; assay: [3H]-histamine competition binding assay, membranes of HEK-293 cells transiently transfected with histamine H4 receptor; conditions: Ki by Cheng-Prusoff equation; HEK-293 membranes, 25° C., 1 hour, pH 7.4; read-out: Potency (nM), displacement of 3H-histamine
Description: In this assay, membranes were prepared from HEK-293 cells transiently transfected with the pCINeo expression vector harboring the histamine H4 receptor by homogenization of the cells on ice in TE buffer (50 mM Tris-HCl buffer, pH 7.4, containing 5 mM EDTA), 1 mM benzamidine, 2 μg/ml aprotinin, […] leupeptin, and 1 μg/ml pepstatin. The homogenate was centrifuged at 40,000 g for 20 minutes at 4° C. This step was repeated, and the resulting pellet was resuspended in TE buffer. Aliquots were frozen at −70° C. until needed. On the day of assay, membranes were thawed and diluted with TE buffer. Competition radioligand binding assays were performed with increasing concentrations of test compound in the presence of [^3H]-histamine incubated at 25° C. for 1 hour in a total volume of 0.5 mL of 50 mM Tris, 5 mM EDTA, pH 7.4. All binding reactions were terminated by filtration under vacuum onto polyethylenimine (0.3%) presoaked Unifilters (PerkinElmer Life Sciences) or Whatman GF/B filters (Whatman, Clifton, N.J.), followed by three brief washes with 4 ml of ice-cold TE buffer. Bound radiolabel was determined by liquid scintillation counting. For all of the radioligand competition binding assays, IC50 values and Hill slopes were determined by Hill transformation of the data, and Ki values were determined by the Cheng-Prusoff equation.

T1 sequence (Q9H3N8 whole entry, species assumed): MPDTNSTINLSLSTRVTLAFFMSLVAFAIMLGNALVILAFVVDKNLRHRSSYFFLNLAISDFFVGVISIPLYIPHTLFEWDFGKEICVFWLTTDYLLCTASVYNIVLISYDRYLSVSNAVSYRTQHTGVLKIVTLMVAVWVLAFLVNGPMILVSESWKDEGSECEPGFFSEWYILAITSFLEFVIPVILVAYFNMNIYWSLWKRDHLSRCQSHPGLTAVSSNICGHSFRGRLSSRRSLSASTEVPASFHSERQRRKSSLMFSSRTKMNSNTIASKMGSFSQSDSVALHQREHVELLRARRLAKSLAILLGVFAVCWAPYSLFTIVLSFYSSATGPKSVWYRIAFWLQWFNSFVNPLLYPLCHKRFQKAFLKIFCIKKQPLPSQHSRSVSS

| Structure (SMILES) | Potency (nM), in vitro histamine H4 potency in FLIPR (histamine H4 receptor [1]) [nM] | Ki (histamine H4 receptor [2]) [nM] |
| --- | --- | --- |
| CN[C@@H]1CCN(c2nc(N)nc3c2CCCC32CCCC2)C1 [Example 1, (R)-4′-(3-(methylamino)pyrrolidin-1-yl)-6′,7′-dihydro-5′H-spiro[cyclopentane-1,8′-quinazolin]-2′-amine] | 2.9 | 2.6 |
| Nc1nc(N2CCNCC2)c2c(n1)C1(CCCCC1)CCCC2 [Example 16, 4-(piperazin-1-yl)-5,6,7,8-tetrahydrospiro[cyclohepta[d]pyrimidine-9,1′-cyclohexan]-2-amine] | 48 | 9.3 |
| CN(C)CCOc1nc(N)nc2c1CCCC21CCCC1 [Example 14, 4′-(2-(dimethylamino)ethoxy)-6′,7′-dihydro-5′H-spiro[cyclopentane-1,8′-quinazolin]-2′-amine] | 7.8 | – |
| Nc1nc(N2CC[C@@H](N)C2)c2c(n1)C1(CCCC1)CCC2 [Example 4, (R)-4′-(3-aminopyrrolidin-1-yl)-6′,7′-dihydro-5′H-spiro[cyclopentane-1,8′-quinazolin]-2′-amine] | 2.7 | 4.6 |
| Nc1nc(N2CCNCC2)c2c(n1)C1(CCCC1)CCC2 [Example 2, 4′-(piperazin-1-yl)-6′,7′-dihydro-5′H-spiro[cyclopentane-1,8′-quinazolin]-2′-amine] | 2.8 | 1.1 |
| CN1CC[C@@H](Oc2nc(N)nc3c2CCCC32CCCC2)C1 [Example 15, (R)-4′-(1-methylpyrrolidin-3-yloxy)-6′,7′-dihydro-5′H-spiro[cyclopentane-1,8′-quinazolin]-2′-amine] | 20 | – |
| COC(=O)C1(N)CCN(c2nc(N)nc3c2CCCC32CCCC2)CC1 [Example 11, Methyl 4-amino-1-(2′-amino-6′,7′-dihydro-5′H-spiro[cyclopentane-1,8′-quinazoline]-4′-yl)piperidine-4-carboxylate] | 12624 | – |
| Nc1nc(N2CC[C@H](N)C2)c2c(n1)C1(CCCC1)CCC2 [Example 5, (S)-4′-(3-aminopyrrolidin-1-yl)-6′,7′-dihydro-5′H-spiro[cyclopentane-1,8′-quinazolin]-2′-amine] | 53 | – |
| Nc1nc(N2CCNCC2)c2c(n1)C1(CCCC2)Cc2ccccc2C1 [Example 19, 4-(piperazin-1-yl)-1′,3′,5,6,7,8-hexahydrospiro[cyclohepta[d]pyrimidine-9,2′-inden]-2-amine] | 26915 | – |
| CNC1CN(c2nc(N)nc3c2CCCC32CCCC2)C1 [Example 3, 4′-(3-(methylamino)azetidin-1-yl)-6′,7′-dihydro-5′H-spiro[cyclopentane-1,8′-quinazolin]-2′-amine] | 4.6 | 1.4 |
| Nc1nc(N2C[C@H]3CCCN[C@H]3C2)c2c(n1)C1(CCCC1)CCC2 [Example 9, 4′-((4aR,7aR)-tetrahydro-1H-pyrrolo[3,4-b]pyridin-6(2H,7H,7aH)-yl)-6′,7′-dihydro-5′H-spiro[cyclopentane-1,8′-quinazolin]-2′-amine] | 8.5 | 3.4 |
| Nc1nc(N2CCCNCC2)c2c(n1)C1(CCCC1)CCC2 [Example 8, 4′-(1,4-diazepan-1-yl)-6′,7′-dihydro-5′H-spiro[cyclopentane-1,8′-quinazolin]-2′-amine] | 9.8 | 2.8 |
| Nc1nc(N2C[C@H]3CCCN[C@H]3C2)c2c(n1)C1(CCCCC1)CCCC2 [Example 18, 4-((4aR,7aR)-tetrahydro-1H-pyrrolo[3,4-b]pyridin-6(2H,7H,7aH)-yl)-5,6,7,8-tetrahydrospiro[cyclohepta[d]pyrimidine-9,1′-cyclohexan]-2-amine] | 99 | – |
| Nc1nc(N2CC[C@@H]3CNC[C@@H]32)c2c(n1)C1(CCCC1)CCC2 [Example 6, 4′-((3aR,6aR)-hexahydropyrrolo[3,4-b]pyrrol-1(2H)-yl)-6′,7′-dihydro-5′H-spiro[cyclopentane-1,8′-quinazolin]-2′-amine] | 1097 | – |
| Nc1nc(N2CCC(N)(C(=O)O)CC2)c2c(n1)C1(CCCC1)CCC2 [Example 12, 4-amino-1-(2′-amino-6′,7′-dihydro-5′H-spiro[cyclopentane-1,8′-quinazoline]-4′-yl)piperidine-4-carboxylic Acid] | 21251 | – |
| CN1CCC(Nc2nc(N)nc3c2CCCC32CCCC2)CC1 [Example 10, N4′-(1-methylpiperidin-4-yl)-6′,7′-dihydro-5′H-spiro[cyclopentane-1,8′-quinazoline]-2′,4′-diamine] | 22 | – |
| Nc1nc(N2CC[C@H]3CNC[C@H]32)c2c(n1)C1(CCCC1)CCC2 [Example 7, 4′-((3aS,6aS)-hexahydropyrrolo[3,4-b]pyrrol-1(2H)-yl)-6′,7′-dihydro-5′H-spiro[cyclopentane-1,8′-quinazolin]-2′-amine] | 1027 | – |
| Nc1nc(N2CC[C@@H](N)C2)c2c(n1)C1(CCCC2)Cc2ccccc2C1 [Example 20, (R)-4-(3-aminopyrrolidin-1-yl)-1′,3′,5,6,7,8-hexahydrospiro[cyclohepta[d]pyrimidine-9,2′-inden]-2-amine] | 499 | – |
| Nc1nc(N2CC(N)C2)c2c(n1)C1(CCCC1)CCC2 [Example 13, 4′-(3-aminoazetidin-1-yl)-6′,7′-dihydro-5′H-spiro[cyclopentane-1,8′-quinazolin]-2′-amine] | 68851 | – |
| Nc1nc(N2CC[C@@H](N)C2)c2c(n1)C1(CCCCC1)CCCC2 [Example 17, (R)-4-(3-aminopyrrolidin-1-yl)-5,6,7,8-tetrahydrospiro[cyclohepta[d]pyrimidine-9,1′-cyclohexan]-2-amine] | 47 | 18 |
